From paper PMC3681751, “Identification of a Novel Antimicrobial Peptide from Human Hepatitis B Virus Core Protein Arginine-Rich Domain (ARD)” (PLoS Pathogens, 2013)
Values after ≈ are worked out from the molar mass of the structure shown. Residues, ends and D or L forms follow the SMILES beside them.

Experiments:
[1] = In vitro peptide-LPS binding on streptavidin beads (LAL test); parameters: species or system Pseudomonas aeruginosa; details: biotinylated peptide 0-2.5 µM on streptavidin beads, 5 µg/ml LPS; unbound LPS by LAL test; triplicates
Procedure: (§1) Several kinds of peptide-LPS or peptide-Lipid A binding assays were performed in this study: 1) Streptavidine-conjugated beads (Dynabeads MyOne Streptavidin T1, Invitrogen) were blocked by P. aeruginosa LPS (Sigma) at 37°C for 1.5 hour. After washing with PBST (PBS, pH 7.4 containing 0.1% (w/v) Tween-20), aliquots containing 250 pmol streptavidine-conjugated beads were incubated with a reaction mixture overnight at 4°C. The reaction mixture was prepared by mixing increasing amounts of biotinylated peptide HBc147-183 (0, 0.004, 0.02, 0.1, 0.5 and 2.5 µM) and 5 µg/ml P. aeruginosa LPS (Sigma) or 200 µg/ml E. coli lipid A (Sigma), at 37°C for 3 hour. After incubation overnight at 4°C, the reduction of LPS (or Lipid A) in the supernatants were measured by the Limulus Amebocyte Lysate (LAL) test (Charles River Endosafe) with an ELISA reader (Molecular Devices). The amount (EU/ml) of LPS was calculated according to the standard curve prepared with Endosafe Control Srandard Endotoxin. […] After trypsinization, the trypsin-released LPS in the supernatants were collected and measured by the Limulus Amebocyte Lysate (LAL) test. […] Plate-bound HBc147-183 was measured by streptavidin conjugated with HRP (1∶10000 dilution) for 1 hour at 37°C. […] The absorption was measured at 450 nm with a reference wavelength at 655 nm.

[2] = tested on: A. baumannii ATCC19606 CR; format: cell-based, Acinetobacter baumannii; details: Induced Colistin resistant strain; colistin susceptibility by broth-dilution (CLSI)
Excerpt: (§2) Clinical isolates of Pseudomonas aeruginosa (NHRI-01, NHRI-02 and NHRI-04) were obtained through the program of Taiwan Surveillance of Antimicrobial Resistance (TSAR), National Health Research Institutes (NHRI), Taiwan. Acinetobacter baumannii (ATCC 17989, ATCC 17978 CR, ATCC19606, ATCC 19606 CR, TCGH 45530 and TCGH 46709) were obtained from Tzu-Chi Buddhist General Hospital (TCGH) in Taiwan, and clinical isolates (TCGH 45530 and TCGH 46709) were identified using the Vitek system (Biomerieux Vitek, Inc., Hazelwood, MO, USA). A. baumannii is defined as multidrug-resistant, when the organism is resistant to piperacillin, piperacillin-tazobactam, ampicillin/sulbactam, imipenem, ceftazidime, gentamicin, amikacin, tetracycline, chloramphenicol, ciprofloxacin, and cotrimoxazole. Susceptibility to colistin was determined using the broth-dilution method, in accordance with the guidelines of the Clinical and Laboratory Standards Institute (CLSI).
(§3) All peptides were purchased from Yao-Hong Biotechnology Inc. (Taipei, Taiwan). Vendors provided data of peptide characterizations, including HPLC and Mass (data not shown). Antimicrobial activity was determined as described with some modifications as detailed below. Bacteria were grown overnight in Mueller–Hinton broth (Difco) at 37°C, and during the mid-logarithmic phase, bacteria were diluted to 10^6 CFU (colony formation unit)/ml in phosphate buffer (10 mM sodium phosphate and 50 mM sodium chloride, pH 7.2). Peptides were serially diluted in the same buffer. Fifty microliter (µl) of bacteria was mixed with fifty µl of peptides at varying concentrations followed by incubation at 37°C for 3 hours without shaking. At the end of incubation, bacteria were placed on Mueller-Hinton broth agar plates, and allowed growth at 37°C overnight for measurement of minimal bactericidal concentration (MBC). […] All peptides were tested in triplicate.

A. baumannii ATCC19606 = format: cell-based, Acinetobacter baumannii; details: ATCC19606, 3 h
Excerpt: as §2, §3

A. baumannii TCGH45530 = format: cell-based, Acinetobacter baumannii; details: TCGH45530, 3 h
Excerpt: as §2, §3

A. baumannii TCGH46709 = format: cell-based, Acinetobacter baumannii; details: TCGH46709, 3 h
Excerpt: as §2, §3

[3] = LPS/Lipid A competition ELISA; format: binding; details: 10 nM peptide, 1 µg LPS per well, E. coli Lipid A 0 to 10 µg/ml, 1 hour 37°C
Procedure: as §1

K. pneumonia = assay: SYTOX Green uptake (membrane permeabilization); format: cell-based, Klebsiella pneumoniae; details: 4 µM peptide; 10^7 CFU, 1 µM SYTOX Green, 37°C
Procedure: Briefly, bacteria (10^7 CFU) were prepared and mixed with 1 µM SYTOX Green (Invitrogen) for 15 minutes in the dark. […] Melittin (Sigma), the major toxin of bee venom, was used as a positive control to provide maximal permeabilization.

P. aeruginosa NHRI-01 = format: cell-based, Pseudomonas aeruginosa; details: colistin-resistant P. aeruginosa of Table 2
Excerpt: as §2, §3

P. aeruginosa NHRI-02 = format: cell-based, Pseudomonas aeruginosa; details: NHRI-02, 3 h
Excerpt: as §2, §3

Huh7 cells = assay: Cytotoxicity, MTT assay; format: cell-based, human; details: 1 hour at 37°C; HBc147-183 at 100 µM, melittin at 3.125 µM; triplicates
Procedure: (§4) Cytotoxicity was measured for HepG2, Huh7, HEK293, and Vero cells by MTT assay. Cells were seeded at 10^4 cells/well in a 96-well plate and serial dilutions of peptides were added into each well. PBS was used as a negative control and melittin was used as a positive control. After 1 hour of incubation, the medium were replaced by fresh medium containing 10% MTT solution (Promega), and the plate was incubated for 4 hours in 5% CO2 at 37°C. The absorbance at the wavelength of 595 nm was measured by an ELISA reader (Bio-Rad model 680).

HEK293 cells = assay: Cytotoxicity, MTT assay; format: cell-based, human; details: 1 hour at 37°C; HBc147-183 at 100 µM, melittin at 3.125 µM; triplicates
Procedure: as §4

HepG2 cells = assay: Cytotoxicity, MTT assay; format: cell-based, human; details: 1 hour at 37°C; HBc147-183 at 100 µM, melittin at 3.125 µM; triplicates
Procedure: as §4

CC(C)[C@H](NC(=O)[C@@H](NC(=O)[C@@H](N)[C@@H](C)O)C(C)C)C(=O)N[C@@H](CCCNC(=N)N)C(=O)N[C@@H](CCCNC(=N)N)C(=O)N[C@@H](CCCNC(=N)N)C(=O)NCC(=O)N[C@@H](CCCNC(=N)N)C(=O)N[C@@H](CO)C(=O)N1CCC[C@H]1C(=O)N[C@@H](CCCNC(=N)N)C(=O)N[C@@H](CCCNC(=N)N)C(=O)N[C@@H](CCCNC(=N)N)C(=O)N[C@H](C(=O)N1CCC[C@H]1C(=O)N[C@@H](CO)C(=O)N1CCC[C@H]1C(=O)N[C@@H](CCCNC(=N)N)C(=O)N[C@@H](CCCNC(=N)N)C(=O)N[C@@H](CCCNC(=N)N)C(=O)N[C@@H](CCCNC(=N)N)C(=O)N[C@@H](CO)C(=O)N[C@@H](CCC(N)=O)C(=O)N[C@@H](CO)C(=O)N1CCC[C@H]1C(=O)N[C@@H](CCCNC(=N)N)C(=O)N[C@@H](CCCNC(=N)N)C(=O)N[C@@H](CCCNC(=N)N)C(=O)N[C@@H](CCCNC(=N)N)C(=O)N[C@@H](CO)C(=O)N[C@@H](CCC(N)=O)C(=O)N[C@@H](CO)C(=O)N[C@@H](CCCNC(=N)N)C(=O)N[C@@H](CCC(=O)O)C(=O)N[C@@H](CO)C(=O)N[C@@H](CCC(N)=O)C(=O)N[C@@H](CS)C(=O)O)[C@@H](C)O [HBc147-183] (H-TVVRRRGRSPRRRTPSPRRRRSQSPRRRRSQSRESQC-OH; N-terminus and C-terminus assumed)
Binding to LPS [1]: capable of binding to LPS
MBC [2]: 2.30 µg/mL (≈ 0.501 µM)
MBC (A. baumannii ATCC19606): 2.30 µg/mL (≈ 0.501 µM)
MBC (A. baumannii TCGH45530): 2.30 µg/mL (≈ 0.501 µM)
MBC (A. baumannii TCGH46709): 4.59 µg/mL (≈ 1 µM)
Binding of peptide to plate-coated LPS with increasing Lipid A [3]: significantly decreased
Membrane permeabilization (SYTOX Green uptake) (K. pneumonia): not able to induce membrane permeabilization
MBC against colistin-resistant P. aeruginosa (P. aeruginosa NHRI-01): > 16 µM
MBC against colistin-sensitive P. aeruginosa (P. aeruginosa NHRI-02): 4 µM (≈ 18.4 µg/mL)
Cell viability / cytotoxicity (MTT) (Huh7 cells): low level of cytotoxicity
Cell viability / cytotoxicity (MTT) (HEK293 cells): low level of cytotoxicity
Cell viability / cytotoxicity (MTT) (HepG2 cells): low level of cytotoxicity
